Experimental data from patent publication US4610987A, “Imidazoquinazolin-2-one compounds” (Daiichi Seiyaku Co., Ltd., priority 1983, dated 1986).
Where a name gives a salt, the structure may show the parent alone. Read-outs that look alike come from different tables or passages of the source.

Columns and labels:
[1] = system: platelet aggregation (human platelet-rich-plasma); experiment: Test of Platelet Aggregation Inhibition (in vitro), human PRP; format: cell-based; details: human blood, ADP-induced
Description: (§1) The test was performed as follows in accordance with the method of Ashida et al, Thrombosis and Haemostasis, Vol. 40, 542 (1979).
(§2) Blood was taken by puncture from the heart of a Wistar Imamichi rat under anesthesia with pentobarbital into a syringe containing 1/10 volume of a 3.13% aqueous solution of sodium citrate dihydrate, and the citrated blood was centrifuged to obtain a platelet-rich-plasma (PRP). In the same manner, citrated blood was collected from the vein of a healthy human who had not taken aspirin or any other anti-inflammatory agent since before 10 days, followed by centrifugation to obtain PRP. 5 μl of each test compound was added to 0.445 ml of each of these PRP samples, and the system was warmed at 30° C. for 1 minute. 50 μl of an aggregation inducer (ADP or collagen) was then added thereto, and platelet aggregation was determined according to the method of Born, Nature, Vol. 194, 927 (1962).

[2] = Solubility Test (water-solubility)
[3] = system: platelet aggregation (rat platelet-rich-plasma); experiment: Test of Platelet Aggregation Inhibition (in vitro), rat PRP; format: cell-based, Wistar Imamichi rat; details: for IC50: Platelet, in vitro, rat blood
Description: as §1, §2

[4] = system: circulatory system; experiment: Test of Influence on Circulatory System (blood pressure, heart beats); format: in vivo, SLC-Wistar rat; details: rat, 50 mg/Kg p.o.
Description: 5 or 6 male normal SLC-Wistar rats per group (body weight: 205-255 g) orally received 50 mg/Kg of the test compound, and the blood pressure (tail cuff method) and the heart beats were measured with the passage of time in order to elucidate influences of the test compound on the circulatory system.

[5] = system: platelet aggregation; experiment: Test of Platelet Aggregation Inhibition (ex vivo, p.o.); format: in vivo, Wistar Imamichi rat; details: for inhibition at 10 mg/kg: Platelet, po, ex vivo, rat, 10 mg/Kg p.o., 1 hour, *P<0.05, **P<0.01, ***P<0.001
Description: One hour later, citrated blood was taken from the heart, and platelet aggregation was determined in the same manner as described in the in vitro test. The inhibitory activity was compared with that of control and expressed in terms of percent inhibition.

[6] = target: human heart PDE III; experiment: Inhibitory activity on phosphodiesterase, heart PDE III (cAMP); format: biochemical; details: for IC50: cAMP substrate; for activity on heart PDE (in words): Table 6
Description: (§3) Phosphodiesterase fractions were separated from 105,000×g of supernatant fractions from human platelets and heart by DEAE-cellulose column chromatography using the method of Timothy et al. (Arch. Biochem. Biophy. 196, 465-474, 1979) with minor modifications. These fractions were designated PDE I, PDE II and PDE III, depending upon the order of their emergence from the DEAE-cellulose column.
(§4) Phosphodiesterase activity was measured by the method of Thompson and Appleman (Biochemistry 10, 311-316, 1971) with slight modifications. The reaction mixture consisted of 25 mM of Tris-HCl (pH 7.4), 5 mM of MgCl2, 1 μM of [^3 H]-cAMP or cGMP (approximate 20,000 cpm), various concentrations of a test compound and the enzyme preparation. After incubation for 10 minutes at 30° C., the reaction was terminated by boiling the reaction mixture for 45 seconds. 5'-[^3 H]-AMP or GMP formed by phosphodiesterase was converted to [^3 H]adenosine or [^3 H]quanosine by snake venom (Botherop Atrox) containing 5'-nucleotidase and the product isolated by a cation exchange resin was counted in a liquid scintillation counter.

[7] = target: human platelet PDE I (Homo sapiens, UniProt O76074); experiment: Inhibitory activity on phosphodiesterase, platelet PDE I (cGMP); format: biochemical; details: cGMP substrate
Description: as §3, §4

[8] = target: human platelet PDE III (Homo sapiens, UniProt Q14432); experiment: biochemical; details: for IC50: cAMP substrate
Description: as §3, §4

[9] = target: human heart PDE I; experiment: Inhibitory activity on phosphodiesterase, heart PDE I (cGMP); format: biochemical; details: cGMP substrate
Description: as §3, §4

[10] = system: human platelet PDE II; experiment: Inhibitory activity on phosphodiesterase, platelet PDE II (cGMP); format: biochemical; details: cGMP substrate
Description: as §3, §4

[11] = system: platelet aggregation; experiment: Test of Platelet Aggregation Inhibition (ex vivo; i.v.); format: in vivo, Wistar Imamichi rat; details: iv, 10 min, rat, i.v. 1.0 mg/Kg/min, 10 min
Description: As test animals, 5 to 6 Wistar Imamichi rats (body weight: about 260 g) that had been allowed food and water ad libitum were used per group. The test compound was dissolved in a physiological saline solution and continuously injected over a period of 10 or 15 minutes to the rats under anesthesia with pentobarbital through the femoral vein. Immediately after completion of the administration, citrated blood was collected from the heart, and platelet aggregation was determined in the same manner as in the test in vitro in Test Example 2.

[12] = system: platelet aggregation induced by B16 melanoma cells; experiment: Inhibition on Platelet Aggregation Induced by Cancer Cells (in vitro), B16; format: cell-based, C57BL/6 mouse; parameters: key: +: Aggregation was observed.; ±: Aggregation was partially inhibited.; -: No aggregation was observed
Description: (§5) It is known nowadays that platelet aggregation plays an important role in metastasis of cancers. […] Tanaka et al. The effect of the compounds of this invention to inhibit the above-described cancer cell-induced platelet aggregation was tested as follows. Cell suspensions of B16 or 3LL were prepared according to the method of Tanaka et al, Invarsion and Metastasis, Vol. 2, 289 (1982). […] Platelet aggregation of the sample system was determined according to the method of Born, and the platelet aggregation inhibitory activity was expressed by the following scale: […]

[13] = system: platelet aggregation induced by Lewis lung cancer (3LL) cells; experiment: Inhibition on Platelet Aggregation Induced by Cancer Cells (in vitro), 3LL; format: cell-based, C57BL/6 mouse; parameters: key: +: Aggregation was observed.; ±: Aggregation was partially inhibited.; -: No aggregation was observed
Description: as §5

[14] = ADP-induced, read-out: IC50, platelet aggregation inhibition in vitro, ADP
[15] = collagen-induced, read-out: IC50, platelet aggregation inhibition in vitro, Collagen
[16] = ADP, read-out: ex vivo % inhibition of platelet aggregation, ADP
[17] = collagen, read-out: ex vivo % inhibition of platelet aggregation, Collagen
[18] = ADP, *P<0.05, **P<0.01, read-out: Percent Inhibition of platelet aggregation, ADP
[19] = collagen, *P<0.05, **P<0.01, read-out: Percent Inhibition of platelet aggregation, Collagen

Chain of human platelet PDE III (Q14432 whole entry): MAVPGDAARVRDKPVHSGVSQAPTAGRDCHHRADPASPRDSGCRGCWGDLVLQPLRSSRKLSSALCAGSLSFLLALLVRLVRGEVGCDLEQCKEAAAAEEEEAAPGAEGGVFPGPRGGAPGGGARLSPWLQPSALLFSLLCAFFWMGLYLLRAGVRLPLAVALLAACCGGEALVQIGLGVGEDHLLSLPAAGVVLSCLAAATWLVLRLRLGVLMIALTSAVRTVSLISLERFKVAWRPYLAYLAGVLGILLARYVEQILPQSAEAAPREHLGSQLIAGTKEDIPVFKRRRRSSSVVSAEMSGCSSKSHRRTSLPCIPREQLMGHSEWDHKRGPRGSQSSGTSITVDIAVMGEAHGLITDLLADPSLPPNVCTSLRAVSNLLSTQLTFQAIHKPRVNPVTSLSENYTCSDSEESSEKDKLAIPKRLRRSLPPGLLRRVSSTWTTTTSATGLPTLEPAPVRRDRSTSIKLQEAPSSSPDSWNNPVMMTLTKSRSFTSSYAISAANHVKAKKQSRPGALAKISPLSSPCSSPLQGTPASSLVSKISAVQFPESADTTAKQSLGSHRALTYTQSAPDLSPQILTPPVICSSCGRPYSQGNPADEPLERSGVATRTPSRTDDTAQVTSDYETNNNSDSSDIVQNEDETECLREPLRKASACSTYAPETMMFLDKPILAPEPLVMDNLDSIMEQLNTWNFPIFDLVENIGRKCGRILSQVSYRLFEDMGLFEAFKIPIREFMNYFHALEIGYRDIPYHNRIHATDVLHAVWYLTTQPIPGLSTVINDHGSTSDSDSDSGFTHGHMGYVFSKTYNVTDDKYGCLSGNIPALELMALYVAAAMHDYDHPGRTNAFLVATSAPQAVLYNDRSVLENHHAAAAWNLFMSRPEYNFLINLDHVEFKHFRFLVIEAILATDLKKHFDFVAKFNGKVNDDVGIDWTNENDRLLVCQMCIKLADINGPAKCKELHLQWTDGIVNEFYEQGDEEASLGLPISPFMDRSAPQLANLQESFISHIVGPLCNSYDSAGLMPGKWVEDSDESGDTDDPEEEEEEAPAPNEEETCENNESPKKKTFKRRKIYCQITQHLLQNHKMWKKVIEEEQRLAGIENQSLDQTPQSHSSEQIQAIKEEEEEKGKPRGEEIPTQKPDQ

Compound	IC50 [3, 14] [nM]	IC50 [3, 15] [nM]	inhibition at 10 mg/kg [5, 16] [%]	inhibition at 10 mg/kg [5, 17] [%]	IC50 [6] [nM]	IC50 [7] [µM]	IC50 Ratio (PDE II) Heart/Platelet [8]	IC50 [8] [nM]	IC50 [9] [µM]	IC50 [10] [µM]	also measured
Cc1cccc2c1CN1CC(=O)NC1=N2.Cl [BL-3459, 6-methyl-1,2,3,5-tetrahydroimidazo[2,1-b]quinazolin-2-one hydrochloride]	5000	760	31	54							IC50 [1]: 1.7 µM; solubility ([2]; tap water, pH 2): < 100 µg/mL; solubility ([2]; water, pH 4, water): < 10 µg/mL; Increase in Heart Beat ([4]; 1 hr, **P<0.01): 18%; Reduction in Blood Pressure ([4]; 1 hr, *P<0.05, **P<0.01): 23%; Increase in Heart Beat ([4]; 2 hr, **P<0.01): 20%; Reduction in Blood Pressure ([4]; 2 hr, *P<0.05, **P<0.01): 28%; Increase in Heart Beat ([4]; 3 hr, **P<0.01): 17%; Reduction in Blood Pressure ([4]; 3 hr, **P<0.01): 26%; Increase in Heart Beat ([4]; 5 hr, **P<0.01): 18%; Reduction in Blood Pressure ([4]; 5 hr, **P<0.01): 34%; Increase in Heart Beat ([4]; 6 hr, *P<0.05, **P<0.01): 19%; Reduction in Blood Pressure ([4]; 6 hr, *P<0.05, **P<0.01): 35%; Reduction in Blood Pressure ([4]; 24 hr, *P<0.05): 12%; aggregation inhibitory activity in ADP- or collagen-induced aggregation (in words) ([5]; orally administered, Table 2): widely varied depending on the individual animal and, therefore, cannot be regarded significant
O=C1CN2Cc3cc(N4CCCCC4)ccc3N=C2N1 [7-Piperidino Compound, reference compound]					800	93	5.3	150	> 100	54	
O=C1CN2Cc3ccc(N4CCOCC4)cc3N=C2N1 [Example 8]											inhibition at 1 mg/kg [11, 18]: 16.5%; inhibition at 1 mg/kg [11, 19]: 48.5%
CN(C)c1cccc2c1CN1CC(=O)NC1=N2 [Example 2]	2700	1500									
Cl.Cl.Nc1ccc2c(c1)CN1CC(=O)NC1=N2 [BL-7-NH2, 7-amino-1,2,3,5-tetrahydroimidazo[2,1-b]quinazolin-2-one dihydrochloride, reference compound]	170000	16000									IC50 [1]: 50 µM; platelet aggregation inhibitory activity (in words) [3]: scarecely exhibited platelet aggregation inhibitory activity
O=C1CN2Cc3cc(N4CCOCC4)ccc3N=C2N1 [Example 28]	5000	2000									
O=C1CN2Cc3cc(N4CCOCC4)c(Cl)cc3N=C2N1 [Example 17]	360	100	47	68							
CC1CCCCN1c1ccc2c(c1)CN1CC(=O)NC1=N2 (stereo not shown) [Example 5]	2000	1700			800	45	2.3	350	> 50	57	activity on heart PDE (in words) [6]: strong activity on heart PDE; water-solubility (in words) [2]: water-soluble; platelet aggregation inhibitory activity (in words) [3]: strong platelet aggregation inhibitory activity
O=C1CN2Cc3c(ccc(N4CCCCC4)c3Cl)N=C2N1 [Example 9]	7900	1200	25	32							
Cc1cc2c(cc1N1CCCCC1)CN1CC(=O)NC1=N2 [Example 18]	5400	580									
O=C1CN2Cc3cc(N4CCCC4)ccc3N=C2N1 [Example 26, 7-pyrrolidino-1,2,3,5-tetrahydroimidazo[2,1-b]quinazolin-2-one dihydrochloride]	2600	1900									
Nc1cc(-c2ccncc2)c[nH]c1=O [Amrinone, 5Amino-(3,4bipyridin)-6(1H)--one, reference compound]					34000	> 100			> 100		
Cl.O=C1CN2Cc3c(sc4c3CCCC4)N=C2N1 [DH-6471, reference compound]					460	> 100	7.1	65	> 10	> 100	
CN(C)c1ccc2c(c1Cl)CN1CC(=O)NC1=N2 [Example 22]	7000	1200	64	86	180	1.6	1.2	150	> 100	2.9	activity on heart PDE (in words) [6]: strong activity on heart PDE; water-solubility (in words) [2]: water-soluble; platelet aggregation inhibitory activity (in words) [3]: strong platelet aggregation inhibitory activity; inhibition at 1 mg/kg [11, 18]: 23.5%; inhibition at 1 mg/kg [11, 19]: 100%
CN(C)c1cc2c(cc1Cl)NC1=NC(=O)CN1C2 [Example 15]	1100	440	28	49	110	3.9	1.7	63	> 100	5.1	activity on heart PDE (in words) [6]: strong activity on heart PDE; Inhibition on platelet aggregation induced by B16 ([12]; sample concn. 0.1 μM): +; Inhibition on platelet aggregation induced by B16 ([12]; sample concn. 0.3 μM): -; Inhibition on platelet aggregation induced by B16 ([12]; sample concn. 1 μM): -; Inhibition on platelet aggregation induced by B16 ([12]; sample concn. 3 μM): -; water-solubility (in words) [2]: water-soluble; platelet aggregation inhibitory activity (in words) [3]: strong platelet aggregation inhibitory activity; Inhibition on platelet aggregation induced by 3LL ([13]; sample concn. 0.3 μM): ±; Inhibition on platelet aggregation induced by 3LL ([13]; sample concn. 1 μM): -; Inhibition on platelet aggregation induced by 3LL ([13]; sample concn. 3 μM): -
CCN(CC)c1ccc2c(c1Cl)CN1CC(=O)NC1=N2 [Example 23]	5600	1300	25	70							
